Results taken from ChEMBL document CHEMBL2057116, “A novel tetrahydrobenzoangelicin with dark and photo biological activity” (Bioorg Med Chem, 2012).
Calls of active or inactive are those of the source. The calls are words filed in the database; no cut-off is given here.

What was measured:
[1] = tested on: A-431; assay: Antiproliferative activity against human A431 cells after 24 hrs by trypan blue dye assay; format: functional, cell-based; conditions: A-431, 24 h
[2] = tested on: HeLa; assay: Antiproliferative activity against human HeLa cells incubated for 1 hr with inhibitor followed by UV irradiation measured after 24 hrs by trypan blue dye assay; format: functional, cell-based; conditions: light or radiation study
[3] = tested on: A-431; assay: Antiproliferative activity against human A431 cells incubated for 1 hr with inhibitor followed by UV irradiation measured after 24 hrs by trypan blue dye assay; format: functional, cell-based; conditions: A-431, light or radiation study
[4] = tested on: HeLa; assay: Antiproliferative activity against human HeLa cells after 24 hrs by trypan blue dye assay; format: functional, cell-based
[5] = tested on: HeLa; assay: Ratio of IC50 for 8-MOP to compound IC50 for human HeLa cells incubated for 1 hr with inhibitor followed by UV irradiation measured after 24 hrs by trypan blue dye assay; format: functional
[6] = tested on: A-431; assay: Ratio of IC50 for 8-MOP to compound IC50 for human A431 cells incubated for 1 hr with inhibitor followed by UV irradiation measured after 24 hrs by trypan blue dye assay; format: functional
[7] = target: DNA topoisomerase 2-alpha (Homo sapiens) (UniProt P11388); assay: Inhibition of human recombinant topoisomerase 2alpha-mediated pBR322 DNA relaxation at 5 uM after 60 mins by agarose gel electrophoretic analysis
Chain of DNA topoisomerase 2-alpha (Homo sapiens) (P11388 whole entry): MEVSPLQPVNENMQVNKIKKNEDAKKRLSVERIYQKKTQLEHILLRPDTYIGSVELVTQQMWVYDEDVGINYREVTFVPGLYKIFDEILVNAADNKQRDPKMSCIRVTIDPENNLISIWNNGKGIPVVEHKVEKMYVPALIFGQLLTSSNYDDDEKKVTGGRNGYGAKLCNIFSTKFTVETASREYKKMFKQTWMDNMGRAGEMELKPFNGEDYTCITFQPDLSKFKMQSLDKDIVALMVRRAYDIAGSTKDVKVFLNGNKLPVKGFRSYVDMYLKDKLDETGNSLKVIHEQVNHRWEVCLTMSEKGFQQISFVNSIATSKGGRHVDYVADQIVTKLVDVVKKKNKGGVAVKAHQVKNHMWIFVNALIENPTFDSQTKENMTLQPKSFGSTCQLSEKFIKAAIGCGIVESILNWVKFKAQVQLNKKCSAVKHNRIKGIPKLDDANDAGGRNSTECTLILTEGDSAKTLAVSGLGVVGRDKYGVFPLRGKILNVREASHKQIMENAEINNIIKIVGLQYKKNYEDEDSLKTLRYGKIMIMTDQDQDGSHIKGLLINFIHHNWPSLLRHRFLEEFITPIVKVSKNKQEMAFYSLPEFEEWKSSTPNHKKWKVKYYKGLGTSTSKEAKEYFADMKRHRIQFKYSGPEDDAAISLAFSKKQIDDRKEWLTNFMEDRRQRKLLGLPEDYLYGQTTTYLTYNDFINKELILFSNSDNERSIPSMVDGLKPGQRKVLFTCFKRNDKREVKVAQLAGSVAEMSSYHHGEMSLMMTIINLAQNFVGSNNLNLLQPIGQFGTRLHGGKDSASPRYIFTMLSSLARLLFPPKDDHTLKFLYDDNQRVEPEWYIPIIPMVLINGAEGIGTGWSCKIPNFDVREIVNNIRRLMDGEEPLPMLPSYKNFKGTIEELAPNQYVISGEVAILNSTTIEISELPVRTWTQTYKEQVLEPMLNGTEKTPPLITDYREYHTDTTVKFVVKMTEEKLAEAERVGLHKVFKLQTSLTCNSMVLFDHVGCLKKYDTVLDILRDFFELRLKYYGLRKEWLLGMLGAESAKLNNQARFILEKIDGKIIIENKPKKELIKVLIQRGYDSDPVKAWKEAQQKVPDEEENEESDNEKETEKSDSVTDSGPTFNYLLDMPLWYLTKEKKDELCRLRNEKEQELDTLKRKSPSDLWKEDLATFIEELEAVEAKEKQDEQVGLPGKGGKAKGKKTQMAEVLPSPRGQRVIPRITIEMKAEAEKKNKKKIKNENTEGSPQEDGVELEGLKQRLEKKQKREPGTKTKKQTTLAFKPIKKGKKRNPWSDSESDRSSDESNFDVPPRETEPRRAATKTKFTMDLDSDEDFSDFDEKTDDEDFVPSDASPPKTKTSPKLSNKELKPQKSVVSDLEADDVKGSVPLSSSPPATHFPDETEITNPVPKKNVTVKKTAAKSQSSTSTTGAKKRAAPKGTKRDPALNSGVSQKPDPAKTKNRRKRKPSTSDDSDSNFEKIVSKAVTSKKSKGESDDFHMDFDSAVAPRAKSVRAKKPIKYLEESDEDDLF

[8] = target: DNA topoisomerase 2-alpha (Homo sapiens) (UniProt P11388); assay: Inhibition of human recombinant topoisomerase 2alpha-mediated pBR322 DNA complex formation at 10 uM after 60 mins by agarose gel electrophoresis
[9] = tested on: Nucleic Acid; assay: Binding affinity to salmon testes DNA assessed as change in linear dichroism at compound to DNA ratio of 0.02 to 0.08 by circular dichroism analysis; format: nucleic-acid assay; conditions: Salmonidae
[10] = tested on: Nucleic Acid; assay: Photoaddition to salmon testes DNA assessed as thymine-photoadduct formation by UV-Vis spectrophotometric analysis; format: nucleic-acid assay; conditions: Salmonidae
[11] = target: DNA topoisomerase 2-alpha (Homo sapiens) (UniProt P11388); assay: Inhibition of human recombinant topoisomerase 2alpha-mediated pBR322 DNA relaxation at 10 uM after 60 mins by agarose gel electrophoretic analysis
[12] = target: DNA topoisomerase 2-alpha (Homo sapiens) (UniProt P11388); assay: Inhibition of human recombinant topoisomerase 2alpha-mediated pBR322 DNA relaxation after 60 mins by agarose gel electrophoretic analysis
[13] = target: DNA topoisomerase 2-alpha (Homo sapiens) (UniProt P11388); assay: Inhibition of human recombinant topoisomerase 2alpha-mediated pBR322 DNA complex formation at 8 uM after 60 mins by agarose gel electrophoresis
[14] = target: DNA topoisomerase 2-alpha (Homo sapiens) (UniProt P11388); assay: Inhibition of human recombinant topoisomerase 2alpha-mediated pBR322 DNA relaxation at 8 uM after 60 mins by agarose gel electrophoretic analysis

| IC50 [1] | IC50 [2] | IC50 [3] | IC50 [4] | inhibition [7] | inhibition [8] | Activity [9] | Activity [10] | inhibition [11] | inhibition [12] | inhibition [13] | inhibition [14] | Structure (SMILES) | Ratio IC50 [5] | Ratio IC50 [6] |
| --- | --- | --- | --- | --- | --- | --- | --- | --- | --- | --- | --- | --- | --- | --- |
| > 20 µM | 1.4 µM | 4.2 µM | > 20 µM | – | – | – | – | – | – | – | – | Cc1cc(=O)oc2c1c(OCCCN(C)C)cc1oc3ccccc3c12 | 5.9 | 5.9 |
| > 30 µM | – | 25 µM | > 30 µM | – | – | – | – | – | – | – | – | COc1c2occc2cc2ccc(=O)oc12 [METHOXSALEN] | – | – |
| 6.7 µM | 0.4 µM | 2 µM | 7.2 µM | Active | inactive | Active | Active | Active | Dose-dependent effect | – | – | Cc1cc(=O)oc2c1c(OCCCN(C)C)cc1oc3c(c12)CCCC3 | 5.9 | 5.9 |
| – | – | – | – | – | – | – | – | – | – | Active | Active | COc1cc(NS(C)(=O)=O)ccc1Nc1c2ccccc2nc2ccccc12 | – | – |
